Values joined by “and” are separate entries in the source; they are usually repeats but may differ in a detail not shown here. Equal entries are not always repeated. Blank lines part the entries; values can stand above or below the compound they belong to. Positions of bridges follow the written chain, without caps; N, C: chain ends. Non-standard residues stand in square brackets, D forms with d. Residues, ends and D or L forms follow the SMILES beside them. No end group written: not given here. *: point of attachment. PhAc = O=C(Cc1ccccc1)*
Key:
[1] = target: T1, VLA-4 (Homo sapiens, UniProt P05556+P13612); test: In vitro binding assay: 51Cr-labeled Jurkat cells to solid phase-bound CS-1 peptide (SEQ ID NO:5); type: cell-based; design: inflammatory cells that contain the VLA-4 receptor [Jurkat cells; host or cells: Jurkat cells (human T lymphoblastic line); conditions: for Relative Potency: Table 1, normalized IC50 potency relative to standard peptide SEQ ID NO:6 (=1), Jurkat cells, CS-1; for CS-1 inhibition potencies relative to each other: ratio XLDFZ:XLDFp:SEQ ID NO:7, XLDFp = 1; for Potency in inhibiting Jurkat cell binding to CS-1 relative to standard 10-mer of SEQ ID NO:6: times/fold more potent than SEQ ID NO:6
Procedure: Binding inhibition is measured here as a concentration of peptide that inhibits one-half the binding between a standard number of Jurkat cells and a standard amount of CS-1 peptide bound to the surface of a microtiter plate well. Those concentrations are conveniently expressed as IC50 values, smaller numbers indicating a lower concentration required to inhibit 50 percent binding and therefore greater potency. Further specifics of this assay are provided hereinafter.
Jurkat cells (ATCC TIB 152), a human T lymphoblastic line, labeled with ^51 chromium were used to assay in vitro binding inhibition provided by various peptides discussed herein.
The plates were prepared as follows: The 25-mer CS-1 peptide (SEQ ID NO:5) dissolved at 0.5-1 μg/ml in a buffer of 0.1M NaHCO3 at pH 9.5 that also contained 10 μg/ml of bovine serum albumin (BSA) or a conjugate of the CS-1 peptide linked to ovalbumin (CS-1-OVA) dissolved at 1-2.5 μg/ml in the same buffer was used as the substrate. Each well of the microtiter plates was coated with 50 μl of substrate or buffer alone for controls. The wells were permitted to dry out completely and were then rinsed twice with PBS at pH 7.4. Non-specific binding sites of each well were then blocked using 200 μl per well of RPMI/1 percent BSA for two hours at room temperature. Both solid phase-affixed substrates provided similar results.
Jurkat cells (3-5×10^6 cells) were placed into a 15 ml FALCON™ round-bottom tube with a cap. The tube was centrifuged, and the extra medium was then removed.
Two hundred microliters of a ^51 Cr labeling solution were added to the centrifuged cells and maintained in contact with the cells for 90-120 minutes in a warm room. This procedure typically provides about 50,000-100,000 cpm/well with about 80-100 percent cell viability. Longer contact times provide a greater amount of labeling but lower cell viability.
The labeled cells were washed with (i) complete medium, (ii) 1mM EDTA/PBS and then (iii) RPM1/1 percent BSA free of serum components. The cells were centrifuged after each washing. The cells were finally resuspended in serum-free RPMI/1 percent BSA at a concentration of 1×10^6 viable cells/ml, which provides a concentration that is diluted by one-half in the assay.
Cyclic inhibitor peptides were prepared as stock solutions at 20 mg/ml in DMSO in 1.5 ml cryogenic screwcap vials, and were stored at -70° C. Using FLOW™ round-bottom or V-bottom microtiter plates, the inhibitor peptides were prepared at twice the assay concentration in RPMI/1 percent BSA at 60 μl/well.
Four initial dilutions were typically used.
The ^51 Cr-labeled cells (1×10^6 cells at 60 μl/well) were then admixed with the diluted cyclic peptide solutions. The admixtures were maintained at room temperature (about 22° C.) for 30 minutes.
One hundred microliters of each inhibitor peptide/cell admixture were transferred to the substrate-coated wells. This was done in triplicate for each dilution. The resulting plates were incubated for 30 minutes at 37° C. and then washed gently three times with RPMI/1 percent BSA at 200 μl/well. Binding was observed microscopically, particularly after the second wash.
The bound cells were then lysed by the addition of a 0.5 percent solution of sodium dodecylsulfate in water at 100 μl/well. The resulting solutions were then processed for counting and calculation of IC50 values following usual procedures. Appropriate positive and negative controls were used with each plate so that the results of separate assays could be normalized and compared.
The potency data of Table 1 and Table 2 are so normalized. The absolute IC50 value for the peptide of SEQ ID NO:7 is 0.3 μM.

[2] = target: T2, VLA-4/sVCAM-1 (Homo sapiens, UniProt P05556+P13612); test: In vitro binding assay: Jurkat cells to solid phase-bound sVCAM-1; type: cell-based; conditions: for relative potencies for inhibiting Jurkat cell binding to solid phase-bound sVCAM-1: compared against each other, XLDFp = 1
T2 construct: host or cells: Jurkat cells carry the VLA-4; The sVCAM-1 partner was made in house in transfected human embryonal kidney 293 cells (ATCC CRL 1573)
Procedure: Assays conducted using sVCAM-1 as solid phase-bound antigen were carried out substantially identically to those using CS-1. The sVCAM-1 polypeptide used had the same amino acid residue sequence as the materials described in Lobb et al., Biochem. Biophys. Res. Commun., 178:1498-1504 (1991) and Cybulsky et al., Proc. Natl. Acad. Sci., USA, 88:7859-7863 (1991). Human embryonal kidney line 293 (ATCC CRL 1573) cells were co-transfected with a plasmid (pCDNAI;invitrogen) containing the sVCAM-1 DNA sequence and plasmid pSV2-neo [Southern et al., J. Mol. Appl. Gen., 1:327-341 ([…])]. Cells were selected in DMEM, 10 percent fetal bovine serum and 600 μg/ml Geneticin. sVCAM-1 was purified from supernatants using a column containing monoclonal antibody P3H12 (anti-human VCAM-1) coupled to Sepharose 4B. The sVCAM-1 was eluted using 0.1M glycine at pH 2.5 following 50 column washes with PBS, pH 7.2. The eluate was immediately neutralized and dialyzed against PBS for use.

[3] = Retention of potency in PBS containing 10 percent mouse or human serum; type: in vitro ADME; conditions: PBS at 7.2-7.4 containing 10 percent mouse or human serum
[4] = tested on: porcine peripheral blood lymphocytes / coronary artery endothelial cells and smooth muscle cells; test: In vitro porcine allograft model: transendothelial lymphocyte migration; type: cell-based; conditions: 10 μg/ml in the medium, IL-1β-stimulated SMC; present-tense example
Procedure: A similar study is carried out in vitro using porcine coronary artery endothelial cells (EC; as are present in the IEL) and smooth muscle cells (SMC; as are present in the medial layer of the artery). The two cell types are cultured using a membrane transwell system, with the SMC on the bottom layer in M-199 medium (Gibco Labs.). The SMC are stimulated with 100 ng/ml of interleukin-1β (IL-1β) for 24 hours prior to the start of the assay. Porcine peripheral blood lymphocytes are separated by Ficoll-Hypaque, radiolabeled and incubated overnight (about 18 hours) on the EC.

[5] = tested on: contact hypersensitivity; conditions: Ferguson et al. 1991; cited from earlier work
[6] = Elices et al. 1993; cited from earlier work
[7] = tested on: Jurkat cell adhesion to RA synovial sections; conditions: 10-mer at 500 μg/ml; reported in Elices et al., J. Clin. Invest. 1994; cited from earlier work
[8] = target: T1, VLA-4; conditions: cited from earlier work

T2 sequence (P13612 34-1032): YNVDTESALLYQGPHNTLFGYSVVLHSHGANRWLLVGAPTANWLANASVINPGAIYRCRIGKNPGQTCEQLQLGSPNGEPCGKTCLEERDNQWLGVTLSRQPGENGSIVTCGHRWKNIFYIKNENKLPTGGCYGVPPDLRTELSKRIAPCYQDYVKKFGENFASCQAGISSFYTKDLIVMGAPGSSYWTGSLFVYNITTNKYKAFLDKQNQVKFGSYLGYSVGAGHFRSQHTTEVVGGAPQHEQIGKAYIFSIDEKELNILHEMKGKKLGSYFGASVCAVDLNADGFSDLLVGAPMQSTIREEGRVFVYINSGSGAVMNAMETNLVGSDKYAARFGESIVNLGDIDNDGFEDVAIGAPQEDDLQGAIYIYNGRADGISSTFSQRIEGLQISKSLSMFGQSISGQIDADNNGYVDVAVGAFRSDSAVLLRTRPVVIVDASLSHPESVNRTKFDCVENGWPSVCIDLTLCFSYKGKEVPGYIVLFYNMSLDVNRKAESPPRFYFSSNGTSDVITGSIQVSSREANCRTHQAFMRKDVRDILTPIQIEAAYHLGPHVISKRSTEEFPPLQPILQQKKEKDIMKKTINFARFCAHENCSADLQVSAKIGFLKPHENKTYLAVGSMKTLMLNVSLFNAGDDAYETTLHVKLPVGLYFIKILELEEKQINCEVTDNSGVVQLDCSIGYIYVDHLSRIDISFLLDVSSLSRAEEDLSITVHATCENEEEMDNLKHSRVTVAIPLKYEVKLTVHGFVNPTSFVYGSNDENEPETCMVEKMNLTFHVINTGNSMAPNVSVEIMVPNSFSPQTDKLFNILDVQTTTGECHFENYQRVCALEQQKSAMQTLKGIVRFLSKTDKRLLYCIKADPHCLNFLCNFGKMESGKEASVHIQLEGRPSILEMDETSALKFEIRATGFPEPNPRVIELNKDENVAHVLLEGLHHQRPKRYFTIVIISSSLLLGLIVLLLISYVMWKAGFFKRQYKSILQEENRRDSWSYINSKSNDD
T2 sequence (P05556 21-798): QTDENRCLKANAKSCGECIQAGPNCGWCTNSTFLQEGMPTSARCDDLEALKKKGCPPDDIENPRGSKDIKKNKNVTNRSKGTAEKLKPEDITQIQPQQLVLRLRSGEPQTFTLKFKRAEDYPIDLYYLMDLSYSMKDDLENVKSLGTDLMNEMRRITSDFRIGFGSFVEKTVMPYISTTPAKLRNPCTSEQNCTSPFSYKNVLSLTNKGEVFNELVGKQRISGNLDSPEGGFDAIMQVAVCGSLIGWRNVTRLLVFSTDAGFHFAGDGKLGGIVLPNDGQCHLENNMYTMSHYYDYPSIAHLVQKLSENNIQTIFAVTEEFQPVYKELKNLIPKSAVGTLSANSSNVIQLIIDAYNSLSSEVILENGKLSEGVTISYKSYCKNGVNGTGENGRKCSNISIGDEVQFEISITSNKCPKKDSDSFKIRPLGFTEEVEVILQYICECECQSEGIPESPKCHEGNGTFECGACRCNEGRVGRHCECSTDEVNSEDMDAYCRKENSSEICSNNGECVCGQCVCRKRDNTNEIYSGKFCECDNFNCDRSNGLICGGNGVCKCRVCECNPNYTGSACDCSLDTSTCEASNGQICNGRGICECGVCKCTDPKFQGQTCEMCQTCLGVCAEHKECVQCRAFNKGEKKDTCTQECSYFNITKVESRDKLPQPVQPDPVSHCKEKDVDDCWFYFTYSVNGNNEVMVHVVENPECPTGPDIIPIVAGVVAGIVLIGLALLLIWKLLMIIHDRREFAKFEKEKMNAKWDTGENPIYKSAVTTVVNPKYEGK
T1 sequence (P13612 34-1032): as the sequence (P13612 34-1032) above
T1 sequence (P05556 21-798): as the sequence (P05556 21-798) above

- potency relative to the best linear peptide (XLDFZ) for inhibiting Jurkat cell binding to CS-1 [1]: about two-thirds the potency
- Relative Potency [1]: 526
- CS-1 inhibition potencies relative to each other [1]: ~1.8
- Potency in inhibiting Jurkat cell binding to CS-1 relative to standard 10-mer of SEQ ID NO:6 [1]: 500-600 and ~563
- potency relative to the best linear peptide (XLDFZ) as inhibitor of Jurkat cell binding to sVCAM-1 [2]: about 3 times
- relative potencies for inhibiting Jurkat cell binding to solid phase-bound sVCAM-1 [2]: ~3.8
- loss of potency in serum-containing buffer [3]: no loss of potency after 24 hours
Compound: NC(=O)[C@@H]1CSSC[C@H](NC(=O)Cc2ccccc2)C(=O)N[C@@H](CC(=O)O)C(=O)N[C@@H](Cc2ccccc2)C(=O)N1 [SEQ ID NO:7, .phi.AcCDFC-NH2] (PhAc-CDFC-NH2; disulfide 1-4)

- Relative Potency [1]: 122
Compound: CC(C)C[C@@H]1NC(=O)[C@H](Cc2ccccc2)NC(=O)[C@@H](N)CSSC[C@@H](C(N)=O)NC(=O)[C@H](CO)NC(=O)[C@@H]2CCCN2C(=O)[C@H](Cc2ccccc2)NC(=O)[C@H](CC(=O)O)NC1=O [SEQ ID NO:13, CFLDFPSC-NH2] (H-CFLDFPSC-NH2; disulfide 1-8)
- transendothelial lymphocyte migration [4]: reduces lymphocyte migration

- CS-1 inhibition potencies relative to each other [1]: ~1
- Potency in inhibiting Jurkat cell binding to CS-1 relative to standard 10-mer of SEQ ID NO:6 [1]: ~313
- relative potencies for inhibiting Jurkat cell binding to solid phase-bound sVCAM-1 [2]: ~1
Compound: CC(C)C[C@H](NC(=O)Cc1ccccc1)C(=O)N[C@@H](CC(=O)O)C(=O)N[C@@H](Cc1ccccc1)C(=O)N1CCC[C@@H]1C(N)=O [XLDFp, .phi.Ac-LeuAspPhe-D-Pro-NH2, reference compound] (PhAc-LDF[dP]-NH2)

Compound: Arg-Gly-Asp [Arg-Gly-Asp peptide]
- recruitment of T lymphocytes to skin inflammatory sites [5]: also inhibitory

- loss of potency in serum-containing buffer [3]: lost its potency in less than one hour
Compound: DELPQLVTLPHPNLHGPEILDVPST [CS-1 peptide, reference compound]
- clearance from blood circulation [6]: rapidly cleared from blood circulation by proteolytic degradation

- Relative Potency [1]: 1
- Potency in inhibiting Jurkat cell binding to CS-1 relative to standard 10-mer of SEQ ID NO:6 [1]: ~1
- inhibition of binding between solid phase-bound sVCAM-1 and Jurkat cells (in words) [2]: no inhibition
Compound: GPEILDVPST [SEQ ID NO:6, standard 10-mer peptide GlyProGluIleLeuAspValProSerThr, set atone, reference compound]
- inhibition of Jurkat cell adhesion to RA synovial sections [7]: can be inhibited

- Relative Potency [1]: 2
Compound: ILDFP-NH2 [SEQ ID NO:27, ILDFP-NH2]

- Relative Potency [1]: 2
Compound: ILDVPILDVP-NH2 [SEQ ID NO:26, ILDVPILDVP-NH2]

Compound: Leu-Asp-Val [LDV]
- affinity of VLA-4 compared with native CS-1 25-mer [8]: at least two orders of magnitude lower affinity

- Relative Potency [1]: < 1
Compound: SFDFS-NH2 [SEQ ID NO:31, SFDFS-NH2]

— patent US5811391A, “Cyclic CS-1 peptidomimetics, compositions and methods of using same” (Cytel Corporation, priority 1995, dated 1998)
